Consider 23 compounds from PubChem BioAssay AID1259408 (Genetic Toxicology Data Bank (GENE-TOX), 2018).

Active and inactive are the calls of the source. How the calls were made is not given here.

The test system of the data set is GENE-TOX genotoxicity assays, various organisms and cells. The experiment in a line: GENE-TOX mutagenicity studies. Particulars: for call: Assay Type: In vivo carcinogenicity studies. The source says:
GENE-TOX provides genetic toxicology (mutagenicity) test data from expert peer review of open scientific literature for more than 3,000 chemicals from the United States Environmental Protection Agency (EPA). GENE-TOX was established to select assay systems for evaluation, review data in the scientific literature, and recommend proper testing protocols and evaluation procedures for these systems.
GENE-TOX covers the years 1991 - 1998. It is no longer updated.
This is an archive assay for GENE-TOX mutagenicity studies.

The mark [1] stands for this setting: Species/Cell Type: Escherichia coli polA (W3119 vs P3478), Assay Type: Rec-assay, DNA effects (bacterial DNA repair), Assay Code: RE1+, Evaluation Type: Evaluation A (Pre-1980).
Setting [2] is: Species/Cell Type: Human diploid fibroblasts, Assay Type: Unscheduled DNA synthesis (UDS) in vitro, DNA effects, Assay Code: UDH-, Evaluation Type: Evaluation A (Pre-1980).
Where [3] appears, read: Species/Cell Type: Nonhuman, Assay Code: CCG+, Evaluation Type: Evaluation A (Pre-1980).
Where [4] appears, read: Species/Cell Type: Nonhuman, Assay Type: Sister-chromatid exchange (SCE) in vitro, Assay Code: SC2+D, Dose Response: With dose response, Evaluation Type: Evaluation B (Post-1980).
Where [5] appears, read: Species/Cell Type: Saccharomyces cerevisiae, Assay Type: Mitotic recombination or gene conversion, Assay Code: YEH+, Evaluation Type: Evaluation A (Pre-1980).
The mark [6] stands for this setting: Species/Cell Type: Salmonella typhimurium (one or more of the five standard strains: TA98, TA100, TA1535, TA1537, and TA1538), Assay Type: Histidine reverse gene mutation, Ames assay, Assay Code: SAL+, Evaluation Type: Evaluation A (Pre-1980).
Setting [7] is: Species/Cell Type: Salmonella typhimurium, Assay Type: Forward and reverse gene mutation, host-mediated assay, Assay Code: HMA+, Evaluation Type: Evaluation A (Pre-1980).
The mark [8] stands for this setting: Species/Cell Type: Syrian hamster embryo (SHE) cells, Assay Type: Cell transformation, clonal assay, Assay Code: CTC+, Evaluation Type: Evaluation A (Pre-1980).
Where [9] appears, read: Species/Cell Type: Nonhuman, Assay Code: CCG+L, Evaluation Type: Evaluation A (Pre-1980).
Where [10] appears, read: Species/Cell Type: Mammalian polychromatic erythrocytes, Assay Type: Micronucleus test, chromosome aberrations, Assay Code: MNTT, Evaluation Type: Evaluation B (Post-1980).
[11] abbreviates: Species/Cell Type: Drosophila melanogaster, Assay Type: Sex-linked recessive lethal gene mutation, Assay Code: SRLT, Evaluation Type: Evaluation A (Pre-1980).
Where [12] appears, read: Species/Cell Type: Bacillus subtilis (H17 vs M45), Assay Type: Rec-assay, spot test, DNA effects (bacterial DNA repair), Assay Code: REW+, Evaluation Type: Evaluation A (Pre-1980).
Setting [13] is: Species/Cell Type: Saccharomyces cerevisiae, Assay Type: Mitotic recombination or gene conversion, Assay Code: YEH-, Evaluation Type: Evaluation A (Pre-1980).

For `CN(C)C(=O)Cl`, the mutagenic call runs as follows: under setting [1], “active; positive”; under setting [2], “inactive; negative”; (Species/Cell Type: Mammalian polychromatic erythrocytes, Assay Type: Micronucleus test, chromosome aberrations, Assay Code: MNT+, Evaluation Type: Evaluation A (Pre-1980)) “active; positive”; under setting [4], “active; positive”; under setting [5], “active; positive”; under setting [6], “active; positive”. Moreover, the mutagenic call under setting [7] was “active; positive” and the mutagenic call under setting [8] is “active; positive”. Further, the call under setting [3] is “active; positive”.

For `CC[C@]1(O)CC[C@H]2[C@@H]3CCC4=CC(=O)CC[C@@H]4[C@H]3CC[C@@]21C`, the mutagenic call (Species/Cell Type: Human, Sex: Male, Assay Type: Sperm morphology, Assay Code: SPH+, Evaluation Type: Evaluation A (Pre-1980)) was “active; positive”.

Take `COCCl`: under setting [9], the call is “active; positive”. For the same compound, for the setting “Species/Cell Type: Syrian hamster embryo (SA7/SHE) cells, Assay Type: Cell transformation, viral enhanced, Assay Code: CT7+, Evaluation Type: Evaluation A (Pre-1980)”, the mutagenic call is “active; positive”.

Turning to `O=C(O)c1ccccc1NCCc1ccccc1`, the mutagenic call under setting [10] is recorded as “no conclusion”.

In the case of `NCC(=O)CCC(=O)O`, the mutagenic call (Species/Cell Type: Rodents, Sex: Male, Assay Type: Dominant lethal test, Assay Code: DLT-, Evaluation Type: Evaluation A (Pre-1980)) is “inactive; negative”.

On to `O=[N+]([O-])c1cc(Cl)cc(Sc2cc(Cl)cc([N+](=O)[O-])c2O)c1O`, for which the mutagenic call under setting [10] was “no conclusion”.

On to `CCOP(=O)(NC(C)C)Oc1ccc(SC)c(C)c1` (centres undefined), for which, where the note is “Species/Cell Type: Nonhuman, Assay Type: Sister-chromatid exchange (SCE) in vitro, Assay Code: SC2-, Evaluation Type: Evaluation B (Post-1980)”, the mutagenic call was “inactive; negative”.

For `CC(C)CCC[C@@H](C)[C@H]1CC[C@H]2[C@@H]3CC=C4C[C@@H](O)CC[C@]4(C)[C@H]3CC[C@]12C`, where the note is “Species/Cell Type: Syrian hamster embryo (SHE) cells, Assay Type: Cell transformation, clonal assay, Assay Code: CTC-, Evaluation Type: Evaluation A (Pre-1980)”, the mutagenic call is “inactive; negative”.

Take `COC(C)[C@](O)(C(=O)O)C(C)C` (some centres undefined): the mutagenic call under setting [11] is on record as “no conclusion”.

Regarding `C=C(C)C(=O)/C(=C\C(=O)O)OC`, the mutagenic call reads like this: under setting [12], “active; positive”; under setting [13], “inactive; negative”; (Species/Cell Type: Salmonella typhimurium (one or more of the five standard strains: TA98, TA100, TA1535, TA1537, and TA1538), Assay Type: Histidine reverse gene mutation, Ames assay, Assay Code: SALT, Evaluation Type: Evaluation A (Pre-1980)) “no conclusion”. In addition, the call under setting [9] was “active; positive”.

Consider `c1ccc2c(c1)ccc1c3ccccc3ccc21`, for which the mutagenic call is “inactive; negative” (Species/Cell Type: Escherichia coli polA (W3110 vs P3478), Assay Type: Rec-assay, DNA effects (bacterial DNA repair), Assay Code: RE2-, Evaluation Type: Evaluation A (Pre-1980)); “no conclusion” (Species/Cell Type: Escherichia coli polA (W3119 vs P3478), Assay Type: Rec-assay, DNA effects (bacterial DNA repair), Assay Code: RE1T, Evaluation Type: Evaluation A (Pre-1980)); “inactive; negative” (Species/Cell Type: Mammalian germ cells, Sex: Male, Assay Type: Chromosome aberrations in vivo, Assay Code: CY9-, Evaluation Type: Evaluation A (Pre-1980)); “inactive; negative” (Species/Cell Type: Mouse prostate cells, Assay Type: Cell transformation, Assay Code: CTM-, Evaluation Type: Evaluation A (Pre-1980)); “active; positive” (Species/Cell Type: Nonhuman, Assay Type: Sister-chromatid exchange (SCE) in vivo, Assay Code: SC3+, Evaluation Type: Evaluation B (Post-1980)); “no conclusion” (Species/Cell Type: Nonhuman, Assay Type: Sister-chromatid exchange (SCE) in vivo, Assay Code: SC3T, Evaluation Type: Evaluation A (Pre-1980)). The mutagenic call reads like this: under setting [13], “inactive; negative”; (Species/Cell Type: Salmonella typhimurium (one or more of the five standard strains: TA98, TA100, TA1535, TA1537, and TA1538), Assay Type: Histidine reverse gene mutation, Ames assay, Assay Code: SAL+*, Activation: With metabolic activation, Evaluation Type: Evaluation A (Pre-1980)) “active; positive”; (Species/Cell Type: Salmonella typhimurium, Assay Type: Forward and reverse gene mutation, host-mediated assay, Assay Code: HMA-, Evaluation Type: Evaluation A (Pre-1980)) “inactive; negative”; under setting [8], “active; positive”. Moreover, the call under setting [9] was “active; positive”.

With `[Cl][Al]([Cl])[Cl]`, the mutagenic call is “inactive; negative” (Species/Cell Type: Bacillus subtilis (H17 vs M45), Assay Type: Rec-assay, spot test, DNA effects (bacterial DNA repair), Assay Code: REW-, Evaluation Type: Evaluation A (Pre-1980)); “active; positive” (Species/Cell Type: Nonhuman bone marrow, Assay Type: Chromosome aberrations, in vivo, Assay Code: CY#+, Evaluation Type: Evaluation A (Pre-1980)); “inactive; negative” (Species/Cell Type: Syrian hamster embryo (SA7/SHE) cells, Assay Type: Cell transformation, viral enhanced, Assay Code: CT7-, Evaluation Type: Evaluation A (Pre-1980)).

As to `Cn1c(CCCC(=O)O)nc2cc(N(CCCl)CCCl)ccc21`, under setting [4], the mutagenic call is “active; positive”.

In the case of `[Cl][Hg]`, the mutagenic call under setting [12] is “active; positive”; the mutagenic call (Species/Cell Type: Bacillus subtilis (H17 vs M45T), Assay Type: Rec-assay, spot test, DNA effects (bacterial DNA repair), Assay Code: REXT, Evaluation Type: Evaluation A (Pre-1980)) was “no conclusion”; the mutagenic call (Species/Cell Type: Nonhuman, Assay Type: Sister-chromatid exchange (SCE) in vitro, Assay Code: SC2+, Evaluation Type: Evaluation B (Post-1980)) was “active; positive”.

Consider `O=CC1CO1` (centres undefined), for which the mutagenic call is, setting by setting: under setting [1], “active; positive”; (Species/Cell Type: Human diploid fibroblasts, Assay Type: Unscheduled DNA synthesis (UDS) in vitro, DNA effects, Assay Code: UDH+, Evaluation Type: Evaluation A (Pre-1980)) “active; positive”; (Species/Cell Type: Mouse (BALB/c-3T3) cells, Assay Type: Cell transformation, Assay Code: CTB+D, Dose Response: With dose response, Evaluation Type: Evaluation A (Pre-1980)) “active; positive”; under setting [5], “active; positive”; under setting [6], “active; positive”; under setting [7], “active; positive”. Further, the mutagenic call under setting [8] was “active; positive”. Under setting [3], the call was “active; positive”.

`Nc1nc(N)nc(N)n1`: the mutagenic call under setting [11] is “no conclusion”.

Turning to `CCOC(=O)C1C(C=C(C)C)C1(C)C` (centres undefined), the mutagenic call is “inactive; negative” under setting [2] and “active; positive” under setting [5].

For the compound `CCOC(=O)COc1ccc(Br)cc1CSC(=N)N`, under “Species/Cell Type: Saccharomyces cerevisiae, Assay Type: Reverse gene mutation, Assay Code: YERT, Evaluation Type: Evaluation A (Pre-1980)”, the mutagenic call was “no conclusion”.

Take `COc1cc2ccc(=O)oc2cc1O`: under “Species/Cell Type: Allium cepa, Assay Type: Chromosome aberrations, Assay Code: ALC+D, Dose Response: With dose response, Evaluation Type: Evaluation A (Pre-1980)”, the mutagenic call is “active; positive”.

Take `O=[N+]([O-])c1ccc(Oc2c(Cl)cc(Cl)cc2Cl)cc1`: the mutagenic call (Species/Cell Type: Mammalian polychromatic erythrocytes, Assay Type: Micronucleus test, chromosome aberrations, Assay Code: MNTT, Evaluation Type: Evaluation A (Pre-1980)) is listed as “no conclusion”.

As to `COc1ccc(O)cc1`, for the setting “Species/Cell Type: Allium cepa, Assay Type: Chromosome aberrations, Assay Code: ALC+, Evaluation Type: Evaluation A (Pre-1980)”, the mutagenic call is “active; positive”.

`CC(C)c1ccccc1`: the mutagenic call is, setting by setting: under setting [13], “inactive; negative”; (Species/Cell Type: Salmonella typhimurium (one or more of the five standard strains: TA98, TA100, TA1535, TA1537, and TA1538), Assay Type: Histidine reverse gene mutation, Ames assay, Assay Code: SAL-, Evaluation Type: Evaluation A (Pre-1980)) “inactive; negative”.

`O=C1CN(/N=C/C=C/c2ccc([N+](=O)[O-])o2)C(=O)N1`: the mutagenic call (Species/Cell Type: Escherichia coli WP2, Assay Type: Tryptophan reverse gene mutation, Assay Code: WP2+, Evaluation Type: Evaluation A (Pre-1980)) was “active; positive” and the mutagenic call (Species/Cell Type: Escherichia coli WP2 UVRA, Assay Type: Tryptophan reverse gene mutation, Assay Code: WPU-, Evaluation Type: Evaluation A (Pre-1980)) is “inactive; negative”.
